From patent US20150034084A1, “[…] NITRIC OXIDE FOR TREATING RESPIRATORY DISEASES” (Advanced Inhalation Therapies (AIT) Ltd., priority 2012, published 2015)
Where two headings read alike, the source gives them in different places.

Tests used:
[1] = Phase I safety study: serum nitrite/nitrate by Griess reagent; type: in vivo, human; conditions: during the trial, 160 ppm gNO
Protocol: (§1) After obtaining informed consent, treatment was initiated within 5 days of enrollment. Subjects were housed in a hospital ward and received 160 ppm gNO for 30 minutes every four hours (Q4h), five times a day, for five consecutive days by inhalation. Subjects returned for follow-up evaluations 3, 7 and 21 days after the final gNO administration. Subject safety was determined by monitoring vital signs, methemoglobin levels, lung function, blood chemistry, hematology, prothrombin time, inflammatory cytokine/chemokines levels and endothelial activation. These parameters were compared to baseline and at various time-points during and after gNO administration.
These parameters were measured continuously during every gNO administration course and for 3.5 hours after the first treatment of the day. Daily serum samples were collected and frozen at −80° C. and the serum […] level was measured using the Griess reagent.

[2] = Phase I safety study: pulmonary function tests; type: in vivo, human
Protocol: as §1
Subjects underwent full pulmonary function tests (PFT), including lung diffusing capacity (DLCO) by a trained technician utilizing a calibrated pulmonary function system (Jaeger MasterScreen, VIASYS Healthcare, USA) on screening and days 2, 8, 12 and 26. Spirometry test (Microloop by Micro Medical, England) was performed on days 1, 3 and 4. Effect of gNO on lung function and DLCO was determined by changes from baseline, treatment days and follow up days.

inflammatory cytokines = test: Phase I safety study: plasma cytokines by cytometric bead array; type: in vivo, human; conditions: 160 ppm gNO inhalation
Protocol: as §1
(§2) Hematological assessment included a complete blood count and differentials (hemoglobin, hematocrit, red blood cell count, white blood cell count, white blood cell differential, and platelet count) were obtained in order to monitor blood chemistry, hematology and inflammation measurements. The blood chemistry profile included serum creatinine, and liver function tests such as aspartate aminotransferase (AST) serum glutamic oxaloacetic transaminase (SGOT), alkaline phosphatase, and gamma-glutamyl transferase (GGT). The effect of gNO on coagulation was determined by the prothrombin time (PT) and its derived measures of prothrombin ratio (PR) and international normalized ratio (INR). Heparinized plasma was collected at baseline and on days 1, 2, 4, and 5 of gNO administration, and on follow-up days 3, 7 and 21 and frozen at −80° C. Plasma cytokine levels were assessed using the human inflammation cytokine bead array kit (BD Bioscience, Canada). Plasma levels of angiopoietin Ang-1 and Ang-2 were determined by ELISA (R&D Systems, USA).
(§3) To assess whether gNO inhalation may cause inflammation or endothelial activation cytokines and the vascular endothelium activation factors Ang-1 and Ang-2 were quantified in peripheral plasma at baseline at various time points thereafter.

Ang-1 and Ang-2 = test: Phase I safety study: plasma angiopoietins (vascular endothelial activation); type: in vivo, human; conditions: 160 ppm gNO inhalation
Protocol: as §1, §2, §3

S. aureus (ATCC) = conditions: 200 ppm gNO, saline; cited from earlier work
Serracia sp. = conditions: 200 ppm gNO, saline; cited from earlier work
Klebsiella sp.#1 = conditions: 200 ppm gNO, saline; cited from earlier work
Klebsiella sp.#2 = conditions: 200 ppm gNO, saline; cited from earlier work
Klebsiella sp.#3 = conditions: 200 ppm gNO, saline; cited from earlier work
Acinetobacter sp. = conditions: 200 ppm gNO, saline; cited from earlier work
E. Coli = conditions: 200 ppm gNO, saline; cited from earlier work
Group B Streptococci = conditions: 200 ppm gNO, saline; cited from earlier work
Mycobacterium = conditions: 200 ppm gNO, saline; cited from earlier work
S. aureus = conditions: cited from earlier work
[3] = test system: influenza A/victoria/H3N2; conditions: 160 ppm gNO, cited from earlier work
[4] = test system: highly pathogenic Avian Influenza H7N3; conditions: cited from earlier work
[5] = in vivo; cited from earlier work
[6] = rats, cited from earlier work
[7] = test system: five planktonic species of methicillin resistant S. aureous (MRSA); conditions: 1,600 ppm hours of gNO; cited from earlier work
[8] = test system: bovine respiratory disease; conditions: intermittent 30 minute exposures of gNO, cattle; cited from earlier work
[9] = continuous delivery of 80 ppm gNO; cited from earlier work
[10] = OSHA / Environmental Protection Agency; cited from earlier work

[N]=O [gNO, nitric oxide]
serum nitrite/nitrate levels versus baseline [1]: no significant differences
lung parenchymal injury ([2]; 160 ppm NO, measured by lung function parameters): did not cause lung parenchymal injury
pulmonary function tests, abnormalities ([2]; during and after gNO administration, 160 ppm): did not reveal any abnormalities
DLCO versus baseline ([2]; during the course of the study): did not change from baseline
FEV1 versus baseline ([2]; during the course of the study): did not differ from baseline
forced vital capacity (FVC) versus baseline ([2]; during the course of the study): did not change from baseline
maximum mid-expiratory flow (MMEF) versus baseline ([2]; during the course of the study): did not differ from baseline
residual volume (RV) versus baseline ([2]; during the course of the study): did not change from baseline
total lung capacity (TLC) versus baseline ([2]; during the course of the study): did not change from baseline
plasma IL-1b level versus baseline (inflammatory cytokines): unaffected
plasma IL-6 level versus baseline (inflammatory cytokines): unaffected
plasma IL-8 level versus baseline (inflammatory cytokines): unaffected
plasma IL-10 level versus baseline (inflammatory cytokines): unaffected
plasma IL-12p70 level versus baseline (inflammatory cytokines): unaffected
plasma TNF level versus baseline (inflammatory cytokines): unaffected
Ang-2/Ang-1 ratio (Ang-1 and Ang-2): not affected
plasma Ang-1 (Ang-1 and Ang-2): unaffected
plasma Ang-2 (Ang-1 and Ang-2): not affected
LD100 (S. aureus (ATCC)): 4 h
Latent Period (S. aureus (ATCC)): 3 h
−2.5 Log10 (S. aureus (ATCC)): 3.3 hours
LD100 (Serracia sp.): 6 h
Latent Period (Serracia sp.): 4 h
−2.5 Log10 (Serracia sp.): 4.9 hours
LD100 (Klebsiella sp.#1): 6 h
Latent Period (Klebsiella sp.#1): 3 h
−2.5 Log10 (Klebsiella sp.#1): 3.5 hours
LD100 (Klebsiella sp.#2): 5 h
Latent Period (Klebsiella sp.#2): 2 h
−2.5 Log10 (Klebsiella sp.#2): 4.1 hours
LD100 (Klebsiella sp.#3): 6 h
Latent Period (Klebsiella sp.#3): 3 h
−2.5 Log10 (Klebsiella sp.#3): 5.1 hours
LD100 (Acinetobacter sp.): 6 h
Latent Period (Acinetobacter sp.): 4 h
−2.5 Log10 (Acinetobacter sp.): 5 hours
LD100 (E. Coli): 5 h
Latent Period (E. Coli): 3 h
−2.5 Log10 (E. Coli): 4.2 hours
LD100 (Group B Streptococci): 2 h
Latent Period (Group B Streptococci): 1 h
−2.5 Log10 (Group B Streptococci): 1.5 hours
LD100 (Mycobacterium): 10 h
Latent Period (Mycobacterium): 7 h
−2.5 Log10 (Mycobacterium): 9.2 hours
survival (downward bactericidal trend towards) (S. aureus; 50-160 ppm gNO, solid media, vs medical air): 5-10%
reduction of colony formation (S. aureus; gNO greater than 120 ppm, agar plates): greater than 90%
time required to achieve the >90% reduction of colony formation (S. aureus; gNO greater than 120 ppm): 8 to 12 h
infectivity ([3]; MDCK plaque assay, A/Victoria/H3N2): reducing the infectivity
anti-viral effect, intermittent versus single exposure ([3]; one 30 minute dose vs three 30 minute treatments Q4h): more evident in the intermittent form of exposure
infectivity [4]: reducing the infectivity
half-life in the body [5]: less than 6 seconds
nitrate excreted in the urine, share of the nitric oxide dose inhaled [5]: more than 70%
mortality ([6]; 300 ppm gNO, groups of 10, first 1-2 days): Six of the animals
mortality ([6]; 400 ppm gNO, 6 hours per day): all of the animals died on the first day
MetHb level ([6]; 400 ppm gNO): 72.5 percents
mortality ([6]; 500 ppm gNO, 6 hours per day): all of the animals died on the first day
MetHb level ([6]; 500 ppm gNO): 67 percents
population of planktonic MRSA strains [7]: A reduction in the population of all five MRSA planktonic strains was observed
clinical symptoms of bovine respiratory disease [8]: decrease the clinical symptoms
NO2 level [9]: 2.6 ppm
increase of SpMet levels [9]: at least 5%
subjects exceeding 7% SpMet [9]: 35%
inhalation threshold limit value (TLV) as a time-weighted average (TWA) [10]: 25 ppm
